From ChEMBL document CHEMBL6092192 (J Med Chem, 2024)
Active and inactive are the calls of the source. The calls are words filed in the database; no cut-off is given here.

Legend:
[1] = test system: KB 3-1; experiment: Reversal of paclitaxel resistance in human KB 3-1 cells assessed as reversal fold by measuring ratio of paclitaxel IC50 to paclitaxel IC50 in presence of test compound at 4 uM incubated for 72 hrs by MTT assay; type: functional
[2] = test system: CT26/TAXOL; experiment: Antitumor T-cell immune response in […] cells xenografted in BALB/c nude mouse model at 100 mg/kg/day, IG in presence of anti-PD-1/paclitaxel measured after 14 days; type: functional, organism-based; conditions: time 14.0 day
[3] = Half life in 12 hrs fasted Sprague-Dawley rat at 1 mg/kg, iv measured upto 720 mins by HPLC-MS/MS analysis; type: ADME, organism-based; conditions: in vivo
[4] = Toxicity in BALB/c nude mouse xenografted with […] CT26/TAXOL cells assessed as effect on spleen at 100 mg/kg/day, IG in presence of paclitaxel measured after 14 days by H and E staining based analysis; type: organism-based; conditions: in vivo, po, 336 h, time 14 day
[5] = target: Voltage-gated inwardly rectifying potassium channel KCNH2 (Homo sapiens, UniProt Q12809); experiment: Inhibition of human ERG expressed in CHO cells by QPatch assay; type: toxicity, cell-based
Chain of Voltage-gated inwardly rectifying potassium channel KCNH2 (Q12809 whole entry): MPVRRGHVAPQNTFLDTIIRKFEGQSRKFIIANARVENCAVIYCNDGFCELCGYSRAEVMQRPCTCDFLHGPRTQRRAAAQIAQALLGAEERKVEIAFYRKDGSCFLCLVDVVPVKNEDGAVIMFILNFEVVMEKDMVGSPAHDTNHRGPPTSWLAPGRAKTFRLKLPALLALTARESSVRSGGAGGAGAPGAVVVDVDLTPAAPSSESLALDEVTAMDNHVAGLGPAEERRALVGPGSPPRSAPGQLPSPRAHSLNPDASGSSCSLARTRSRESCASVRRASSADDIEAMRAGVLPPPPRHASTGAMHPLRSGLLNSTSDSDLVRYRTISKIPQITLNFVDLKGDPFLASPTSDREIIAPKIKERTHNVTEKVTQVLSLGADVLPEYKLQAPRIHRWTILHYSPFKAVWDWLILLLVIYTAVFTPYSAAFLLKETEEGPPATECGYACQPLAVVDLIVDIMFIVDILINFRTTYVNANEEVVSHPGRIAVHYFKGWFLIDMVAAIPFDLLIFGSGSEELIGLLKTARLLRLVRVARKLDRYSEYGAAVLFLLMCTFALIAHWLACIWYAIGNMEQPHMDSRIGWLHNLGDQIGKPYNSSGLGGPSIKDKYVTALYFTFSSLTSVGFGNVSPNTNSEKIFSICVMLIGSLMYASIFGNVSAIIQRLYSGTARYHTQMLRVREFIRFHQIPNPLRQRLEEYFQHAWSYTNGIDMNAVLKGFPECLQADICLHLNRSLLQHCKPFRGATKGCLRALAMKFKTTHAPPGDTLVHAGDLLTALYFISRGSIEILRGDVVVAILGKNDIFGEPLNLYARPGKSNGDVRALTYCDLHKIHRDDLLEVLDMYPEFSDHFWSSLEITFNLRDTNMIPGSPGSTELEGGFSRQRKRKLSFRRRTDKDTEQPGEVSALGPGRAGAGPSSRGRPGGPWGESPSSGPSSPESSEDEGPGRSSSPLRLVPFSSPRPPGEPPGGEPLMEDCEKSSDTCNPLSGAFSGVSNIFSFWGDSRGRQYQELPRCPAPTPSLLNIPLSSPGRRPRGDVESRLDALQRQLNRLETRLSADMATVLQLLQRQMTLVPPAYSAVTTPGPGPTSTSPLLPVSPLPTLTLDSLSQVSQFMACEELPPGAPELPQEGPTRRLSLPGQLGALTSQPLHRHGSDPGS

[6] = AUC (0 to t) in 12 hrs fasted Sprague-Dawley rat at 10 mg/kg, po measured upto 720 mins by HPLC-MS/MS analysis; type: ADME, organism-based; conditions: in vivo
[7] = Toxicity in BALB/c nude mouse xenografted with […] CT26/TAXOL cells assessed as effect on brain at 100 mg/kg/day, IG in presence of paclitaxel measured after 14 days by H and E staining based analysis; type: organism-based; conditions: in vivo, po, 336 h, time 14 day
[8] = test system: KB-C2; experiment: Cytotoxicity against human KB-C2 cells assessed as survival rate at 5 uM measured after 72 hrs by MTT assay relative to control; type: functional; conditions: read-out: Survival
[9] = target: Multidrug resistance-associated protein 1 (Homo sapiens, UniProt P33527); experiment: Induction of thermal stabilization of ABCC1 in human SW620/AD300 cells at 200 uM measured after 30 mins by thermal shift assay; type: cell-based; conditions: sw620/ad300, 0.5 h
Chain of Multidrug resistance-associated protein 1 (P33527 whole entry): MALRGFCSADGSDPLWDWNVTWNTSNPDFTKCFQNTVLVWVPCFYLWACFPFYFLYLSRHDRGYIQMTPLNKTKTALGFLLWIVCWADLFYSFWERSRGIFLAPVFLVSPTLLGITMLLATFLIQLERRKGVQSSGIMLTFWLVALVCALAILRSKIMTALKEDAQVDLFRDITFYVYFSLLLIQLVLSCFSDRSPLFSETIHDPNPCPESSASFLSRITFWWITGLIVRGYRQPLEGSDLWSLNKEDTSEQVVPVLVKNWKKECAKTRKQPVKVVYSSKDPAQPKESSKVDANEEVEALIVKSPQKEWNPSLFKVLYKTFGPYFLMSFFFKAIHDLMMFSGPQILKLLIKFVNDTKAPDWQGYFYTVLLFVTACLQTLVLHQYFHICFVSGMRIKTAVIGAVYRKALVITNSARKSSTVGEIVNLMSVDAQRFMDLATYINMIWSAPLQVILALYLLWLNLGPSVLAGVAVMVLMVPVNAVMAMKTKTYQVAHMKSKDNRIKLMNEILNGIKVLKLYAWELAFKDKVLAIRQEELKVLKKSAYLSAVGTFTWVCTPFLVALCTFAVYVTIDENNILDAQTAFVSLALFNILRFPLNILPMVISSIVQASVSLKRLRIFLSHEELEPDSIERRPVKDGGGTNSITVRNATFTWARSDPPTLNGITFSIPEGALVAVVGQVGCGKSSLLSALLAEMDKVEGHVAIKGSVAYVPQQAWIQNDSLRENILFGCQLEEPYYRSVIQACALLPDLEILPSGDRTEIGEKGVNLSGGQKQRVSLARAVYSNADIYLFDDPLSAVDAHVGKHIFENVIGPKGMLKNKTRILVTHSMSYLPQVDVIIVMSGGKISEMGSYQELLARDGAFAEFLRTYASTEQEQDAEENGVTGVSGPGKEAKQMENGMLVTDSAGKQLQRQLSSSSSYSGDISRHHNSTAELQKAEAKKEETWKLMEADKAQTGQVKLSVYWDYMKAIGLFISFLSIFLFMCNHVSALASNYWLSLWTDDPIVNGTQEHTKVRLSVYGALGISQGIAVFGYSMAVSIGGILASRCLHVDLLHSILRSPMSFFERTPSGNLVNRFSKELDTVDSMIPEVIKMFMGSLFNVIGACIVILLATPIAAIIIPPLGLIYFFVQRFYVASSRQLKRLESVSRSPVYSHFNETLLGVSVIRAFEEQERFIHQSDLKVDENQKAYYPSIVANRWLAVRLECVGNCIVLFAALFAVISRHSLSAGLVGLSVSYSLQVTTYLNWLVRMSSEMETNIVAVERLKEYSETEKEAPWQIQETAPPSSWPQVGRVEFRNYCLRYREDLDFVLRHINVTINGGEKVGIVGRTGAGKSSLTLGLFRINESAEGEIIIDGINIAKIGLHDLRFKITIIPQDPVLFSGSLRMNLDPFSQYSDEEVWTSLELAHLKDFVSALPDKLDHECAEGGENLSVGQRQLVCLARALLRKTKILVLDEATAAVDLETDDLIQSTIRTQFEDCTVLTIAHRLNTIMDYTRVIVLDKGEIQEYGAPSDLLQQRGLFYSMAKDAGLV

[10] = test system: HEK293; experiment: Cytotoxicity against HEK293 cells harbouring ABCB1 assessed as survival rate at 5 uM measured after 72 hrs by MTT assay relative to control; type: functional; conditions: Homo sapiens, read-out: Survival
[11] = test system: KB-C2; experiment: Reversal of paclitaxel resistance in human KB-C2 cells assessed as reversal fold by measuring ratio of paclitaxel IC50 to paclitaxel IC50 in presence of test compound at 4 uM incubated for 72 hrs by MTT assay; type: functional
[12] = test system: HEK293; experiment: Cytotoxicity against HEK293 cells transfected with pcDNA3.1 assessed as survival rate at 2 uM measured after 72 hrs by MTT assay relative to control; type: functional; conditions: Homo sapiens, read-out: Survival
[13] = test system: SW620/AD300; experiment: Antitumor activity against human SW620/AD300 cells xenografted in male BALB/c nude mouse model assessed as increase in apoptosis at 100 mg/kg/day, IG in presence of paclitaxel by tunel staining based immunofluorescence analysis; type: functional, organism-based
[14] = test system: KB-C2; experiment: Cytotoxicity against human KB-C2 cells assessed as survival rate at 2 uM measured after 72 hrs by MTT assay relative to control; type: functional; conditions: read-out: Survival
[15] = test system: CT26/TAXOL; experiment: Antitumor T-cell immune response in […] cells xenografted in BALB/c nude mouse model assessed as reduction in tumor volume at 100 mg/kg/day, IG in presence of anti-PD-1/paclitaxel measured after 14 days; type: functional, organism-based; conditions: time 14.0 day
[16] = Toxicity in BALB/c nude mouse xenografted with […] CT26/TAXOL cells assessed as effect on liver at 100 mg/kg/day, IG in presence of paclitaxel measured after 14 days by H and E staining based analysis; type: organism-based; conditions: in vivo, po, 336 h, time 14 day
[17] = MRT (0 to infinity) in 12 hrs fasted Sprague-Dawley rat at 1 mg/kg, iv measured upto 720 mins by HPLC-MS/MS analysis; type: ADME, organism-based; conditions: in vivo
[18] = Reversal of paclitaxel resistance in HEK293 cells transfected with pcDNA3.1 assessed as reversal fold by measuring ratio of paclitaxel IC50 to paclitaxel IC50 in presence of test compound at 2 uM incubated for 72 hrs by MTT assay; type: functional, Homo sapiens
[19] = Toxicity in BALB/c nude mouse xenografted with […] CT26/TAXOL cells assessed as effect on brain at 100 mg/kg/day, IG measured after 14 days by H and E staining based analysis; type: organism-based; conditions: in vivo, po, 336 h, time 14 day
[20] = Toxicity in BALB/c nude mouse xenografted with […] CT26/TAXOL cells assessed as effect on kidney at 100 mg/kg/day, IG in presence of paclitaxel/anti-PD-1 measured after 14 days by H and E staining based analysis; type: organism-based; conditions: in vivo, po, 336 h, time 14 day
[21] = Reversal of paclitaxel resistance in HEK293 cells harbouring ABCB1 assessed as reversal fold by measuring ratio of paclitaxel IC50 to paclitaxel IC50 in presence of test compound at 4 uM incubated for 72 hrs by MTT assay; type: functional, Homo sapiens
[22] = test system: HEK293; experiment: Cytotoxicity against HEK293 cells transfected with pcDNA3.1 assessed as survival rate at 5 uM measured after 72 hrs by MTT assay relative to control; type: functional; conditions: Homo sapiens, read-out: Survival
[23] = test system: CT26/TAXOL; experiment: Antitumor T-cell immune response in […] cells xenografted in BALB/c nude mouse model assessed as reduction in tumor weight at 100 mg/kg/day, IG in presence of anti-PD-1/paclitaxel measured after 14 days; type: functional, organism-based; conditions: time 14.0 day
[24] = MRT (0 to infinity) in 12 hrs fasted Sprague-Dawley rat at 10 mg/kg, po measured upto 720 mins by HPLC-MS/MS analysis; type: ADME, organism-based; conditions: in vivo
[25] = Toxicity in BALB/c nude mouse xenografted with […] CT26/TAXOL cells assessed as effect on spleen at 100 mg/kg/day, IG measured after 14 days by H and E staining based analysis; type: organism-based; conditions: in vivo, po, 336 h, time 14 day
[26] = Toxicity in BALB/c nude mouse xenografted with […] CT26/TAXOL cells assessed as mortality at 100 mg/kg/day, IG measured upto 14 days; type: organism-based; conditions: in vivo, po, 336 h, time < 14 day
[27] = Toxicity in Sprague-Dawley rat assessed as maximum tolerated dose measured for 14 days administered as single oral dose; conditions: in vivo, time 14 day
[28] = Toxicity in Sprague-Dawley rat assessed as fatality at 250 to 1000 mg/kg, po measured for 14 days administered as single dose; type: organism-based; conditions: in vivo, 336 h, dose 250-1000 mg/kg, time 14 day
[29] = Reversal of paclitaxel resistance in HEK293 cells transfected with pcDNA3.1 assessed as reversal fold by measuring ratio of paclitaxel IC50 to paclitaxel IC50 in presence of test compound at 4 uM incubated for 72 hrs by MTT assay; type: functional, Homo sapiens
[30] = target: T1, ATP-dependent translocase ABCB1 (Homo sapiens, UniProt P08183); experiment: Induction of thermal stabilization of ABCB1 in human SW620/AD300 cells at 200 uM measured after 30 mins by thermal shift assay; type: cell-based; conditions: sw620/ad300, 0.5 h
T1 sequence (P08183 whole entry): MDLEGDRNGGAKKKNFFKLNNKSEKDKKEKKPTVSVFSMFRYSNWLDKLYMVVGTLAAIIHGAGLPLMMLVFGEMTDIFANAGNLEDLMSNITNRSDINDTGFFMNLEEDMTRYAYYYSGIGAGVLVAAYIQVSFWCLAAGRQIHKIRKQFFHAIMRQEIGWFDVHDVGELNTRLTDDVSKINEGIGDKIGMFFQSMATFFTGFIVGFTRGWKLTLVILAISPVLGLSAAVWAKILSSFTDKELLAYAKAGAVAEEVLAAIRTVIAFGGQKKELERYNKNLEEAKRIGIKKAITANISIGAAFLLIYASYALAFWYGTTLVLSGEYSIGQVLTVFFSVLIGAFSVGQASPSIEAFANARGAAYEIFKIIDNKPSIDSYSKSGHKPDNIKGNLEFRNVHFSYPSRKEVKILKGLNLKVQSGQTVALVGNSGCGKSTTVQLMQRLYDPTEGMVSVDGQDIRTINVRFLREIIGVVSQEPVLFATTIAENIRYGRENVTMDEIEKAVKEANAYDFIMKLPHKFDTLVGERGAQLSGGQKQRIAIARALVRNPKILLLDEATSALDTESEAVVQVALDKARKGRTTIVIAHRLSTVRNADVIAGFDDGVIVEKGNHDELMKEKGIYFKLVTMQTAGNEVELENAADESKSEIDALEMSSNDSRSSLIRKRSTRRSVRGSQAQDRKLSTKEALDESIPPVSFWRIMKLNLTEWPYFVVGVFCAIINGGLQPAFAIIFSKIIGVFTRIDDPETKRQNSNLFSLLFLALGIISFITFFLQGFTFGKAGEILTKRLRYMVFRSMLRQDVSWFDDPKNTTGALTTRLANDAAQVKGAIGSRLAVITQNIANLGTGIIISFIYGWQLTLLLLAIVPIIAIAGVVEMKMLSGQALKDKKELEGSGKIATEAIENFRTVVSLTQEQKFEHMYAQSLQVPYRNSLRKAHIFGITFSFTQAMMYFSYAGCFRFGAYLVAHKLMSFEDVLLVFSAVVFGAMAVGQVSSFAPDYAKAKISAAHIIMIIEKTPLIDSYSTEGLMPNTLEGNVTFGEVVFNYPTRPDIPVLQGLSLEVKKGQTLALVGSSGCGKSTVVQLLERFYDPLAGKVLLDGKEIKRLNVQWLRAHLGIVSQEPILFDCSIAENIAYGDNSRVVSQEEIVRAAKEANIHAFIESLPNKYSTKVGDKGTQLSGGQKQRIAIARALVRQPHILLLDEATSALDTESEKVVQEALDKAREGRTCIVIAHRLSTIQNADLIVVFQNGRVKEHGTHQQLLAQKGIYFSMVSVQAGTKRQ

[31] = Toxicity in BALB/c nude mouse xenografted with […] CT26/TAXOL cells assessed as effect on heart at 100 mg/kg/day, IG measured after 14 days by H and E staining based analysis; type: organism-based; conditions: in vivo, po, 336 h, time 14 day
[32] = target: T1, ATP-dependent translocase ABCB1; experiment: Inhibition of ABCB1 in human SW620/AD300 cells assessed as increase in intracellular paclitaxel incubated for 4 hrs by liquid scintillation analysis; type: cell-based; conditions: sw620/ad300, 4 h, at 2 to 4 µM, dose 2-4 µM

With O=c1c2c([nH]c3nc(SCc4nc5ccccc5s4)nn13)CCC2 the “Ratio IC50” value [1] was 1.39, the Activity [2] was “Active” and the half-life [3] was 5.37 h. The Activity [4] was “Non-toxic”, the IC50 [5] was > 50 µM and the AUC(0-t) at 12 h [6] was 5740 ng·h/mL. For the same molecule, the Activity [7] was “Non-toxic”, the viability at 5 µM [8] was 94.4% and the Activity [9] was “Not_active”. For the same molecule, the viability at 5 µM [10] was 91.2%, the “Ratio IC50” value [11] was 443.74 and the viability at 2 µM [12] was 97.8%. For the same molecule, the Activity [13] was “Active”, the viability at 2 µM [14] was 96.2% and the Activity [15] was “Active”. For the same molecule, the Activity [16] was “Non-toxic”, the MRT inf [17] was 5.49 h and the “Ratio IC50” value [18] was 10.9. For the same molecule, the Activity [19] was “Non-toxic”, the Activity [20] was “Non-toxic” and the “Ratio IC50” value [21] was 28.25. The viability at 5 µM [22] was 94.3%, the Activity [23] was “Active” and the MRT inf [24] was 7.24 h. For the same molecule, the Activity [25] was “Non-toxic”, the Activity [26] was “Non-toxic” and the MTD at 336 h [27] was 1000 mg/kg. The Activity [28] was “Non-toxic”, the “Ratio IC50” value [29] was 1.16 and the Activity [30] was “Active”. For the same molecule, the Activity [31] was “Non-toxic” and the “inhibition (INH)” value [32] was “Dose-dependent-effect”.
